# Assay results reported in PMC9268591, “Anti-Inflammatory, Analgesic and Antioxidant Potential of New (2S,3S)-2-(4-isopropylbenzyl)-2-methyl-4-nitro-3-phenylbutanals and Their Corresponding Carboxylic Acids through In Vitro, In Silico and In Vivo Studies” (Molecules, 2022).
# Where “and” joins values, the source holds several entries; their conditions need not be identical. Equal values may be shown once. Marks after values point to notes of the source that are not given here.
# Experiments:
# [1] = tested on: mice; assay: Formalin-induced paw-licking test; details: 5 mg/kg i.p.
# Description: Swiss albino mice of both sexes with an average weight of 30 to 35 g were obtained from the respective section of NIH (National Institute of Health) Islamabad, Pakistan.
# The early phase was initially five minutes, while the late phase was 15-30 min. In both the phases, the mice were under observation for licking. As per the protocols, naloxone (2 mg/kg), indomethacin (10 mg/kg) and morphine (5 mg/kg) were used [28].
# [2] = tested on: mice; assay: Hot plate test; design: species or system Swiss albino mice; details: mouse, in vivo
# [3] = tested on: albino mice; assay: Carrageenan-induced inflammation; assay type: in vivo, Swiss albino mice; details: standard aspirin (100 mg/kg in method)
# Description: After the acute toxicity studies, the carrageenan-induced inflammation assay was performed on the compounds having a safety profile within limit. Forty (40) albino mice of both sexes were alienated into five different groups, with eight mice in each group. Group I was tagged as the negative control group and was administered dimethylsulfoxide (10 mL/kg, 10% v/v) and phosphate buffer (150 µL). Group II was tagged as the standard/positive control group and received a dose of aspirin (100 mg/kg in 0.9% normal saline). The remaining groups (III, IV and V) were tagged as experimental groups and received synthesized compounds (25, 50 and 100 mg/kg in DMSO) and Tween-80 in normal saline. After half an hour, carrageenan suspension (0.05 mL, 1% w/v in saline) was injected into the animals. After the injection of the irritant/carrageenan, the inflammation in the paws was measured by a plethysmometer in intervals (1 to 5 h). The inflammation in the paws of animals in different groups was compared with that of the vehicle, and the percent anti-inflammatory activities were recorded as per the standard method.
# [4] = tested on: albino mice; assay: Acetic acid induced writhing test; assay type: in vivo, Swiss albino mice; details: standard drug 10 mg/kg
# Description: The acetic induced analgesic assay on the compounds FM10 and FM12 was performed to determine the role of the peripheral pathway. The albino mice of both sexes were divided into two groups. Compounds FM10 and FM12 were administered to both the groups in doses of 25 and 50 mg/kg. After 1 h, acetic acid was injected intraperitoneally in the strength of 10 mL/kg. The negative control was Tween 80 1% solution in the strength of 10 mL/kg. […] The activities in animals were determined from the number of stretchings and writings.
Structure (SMILES),"Percent (%) inhibition, 0–5 min ([1]; early phase)",Time spent (licking) 0–5 min ([1]; early phase) [s],"Percent (%) inhibition, 0–5 min ([1]; early phase, listed as morphine) [%]","Percent (%) inhibition, 15–30 min ([1]; late phase)",Time spent (licking) 15–30 min ([1]; late phase) [s],"Percent (%) inhibition, 15–30 min ([1]; late phase, listed as morphine) [%]",Reaction time on hot plate [2],"Anti-inflammatory activity, carrageenan assay ([3]; first hour) [%]","Anti-inflammatory activity, carrageenan assay ([3]; fourth hour) [%]",Mean inhibition of writhes [4] [%]
CN1CC[C@]23c4c5ccc(O)c4O[C@H]2[C@@H](O)C=C[C@H]3[C@H]1C5 [Morphine],88.64 *** %,6.50 ± 0.78,88.64,93.81 *** %,4.83 ± 0.62,93.81,12.88 ± 0.26 min and 12.31 ± 0.62 min and 11.86 ± 0.87 min,–,–,–
"CC(=O)Oc1ccccc1C(=O)O [aspirin, acetylsalicylic acid]",–,–,–,–,–,–,–,52.77,61.43,73.01
